We go through ten molecules from US9050346B2, “Bromodomain inhibitors” (AbbVie Inc., priority 2013, dated 2015).

One experiment has as its target T1, BRD4 (BDII_E352-M457) (Homo sapiens, UniProt O60885).
T1 construct: made in house
Put plainly: TR-FRET bromodomain binding assay, BRD4 second bromodomain. Here is the method:
(§1) A time-resolved fluorescence resonance energy transfer (TR-FRET) assay was used to determine the affinities of compounds of the Examples listed in Table 1 for each bromodomain of BRD4. His-tagged first (BD1: amino acids K57-E168) and second (BD2: amino acids E352-E168) bromodomains of BRD4 were expressed and purified. An Alexa647-labeled BET-inhibitor was used as the fluorescent probe in the assay.
(§2) Compound dilution series were prepared in DMSO via an approximately 3-fold serial dilution from one of the following: • Assay method A: 2.5 mM-800 nM • Assay method B: 2.5 mM-797 nM • Assay method C: 1250 μM-21 nM • Assay method D: 500 μM-8.5 nM • Assay method E: 0.47 mM to 7.8 nM • Assay method F: 250 μM-4.2 nM • Assay method G: 0.047 mM to 0.78 nM or 5-fold serial dilution from Assay Method A or Assay Method B.
(§3) For Assay methods A, C, D, and F: Compounds were then diluted 6:100 in assay buffer (20 mM Sodium Phosphate, pH 6.0, 50 mM NaCl, 1 mM Ethylenediaminetetraacetic acid, 0.01% Triton X-100, 1 mM DL-Dithiothreitol) to yield 3× working solutions. Six microliters (μL) of the working solution was then transferred to white, low-volume assay plates (Costar #3673). A 1.5× assay mixture containing His-tagged bromodomain, Europium-conjugated anti-His antibody (Invitrogen PV5596) and the Alexa-647-conjugated probe molecule was also prepared. Twelve μL of this solution were added to the assay plate to reach a final volume of 18 μL.
(§4) For Assay methods B, E, and G: Compound dilutions were added directly into white, low-volume assay plates (Perkin Elmer Proxiplate 384 Plus#6008280) using a Labcyte Echo in conjunction with Labcyte Access and Thermo Multidrop CombinL robotics. Compounds were then suspended in eight microliters (μL) of assay buffer (20 mM Sodium Phosphate, pH 6.0, 50 mM NaCl, 1 mM Ethylenediaminetetraacetic acid disodium salt dihydrate, 0.01% Triton X-100, 1 mM DL-Dithiothreitol) containing His-tagged bromodomain, Europium-conjugated anti-His antibody (Invitrogen PV5596) and Alexa-647-conjugated probe.
(§5) The final concentration of 1× assay mixture for assay methods A, B, C, D, E, F, and G contains 2% DMSO, 8 nM His-tagged bromodomain, 1 nM Europium-conjugated anti-His-tag antibody and 100 nM or 30 nM probe (for BDI or BDII, respectively) and compound concentration in the range of: 50 μM-16 nM for method A, 49.02 μM-15.63 nM for method B, 25 μM-423 pM for method C, 10 μM-169 pM for method D, 9.19 μM-150 pM for method E, 5 μM-85 pM for method F, and 0.92 μM-15 pM for method G.
(§6) After a one-hour equilibration at room temperature, TR-FRET ratios were determined using an Envision multilabel plate reader (Ex 340, Em 495/520).
(§7) TR-FRET data were normalized to the means of 24 no-compound controls (“high”) and 8 controls containing 1 μM un-labeled probe (“low”). Percent inhibition was plotted as a function of compound concentration and the data were fit with the 4 parameter logistic equation to obtain IC50s Inhibition constants (Ki) were calculated from the IC50s, probe Kd and probe concentration. Typical Z′ values were between 0.65 and 0.75. The minimum significant ratio was determined to evaluate assay reproducibility (Eastwood et al., (2006) J Biomol Screen, 11: 253-261). The MSR was determined to be 2.03 for BDI and 1.93 for BDII, and a moving MSR (last six run MSR overtime) for both BDI and BDII was typically <3.
(TR-FRET usually uses a lanthanide donor and a delayed reading to cut background.)

The target in the next experiment is T2, BRD4 (BDI_K57-E168) (Homo sapiens, UniProt O60885).
T2 construct: BD1: amino acids K57-E168; made in house
The experiment in a line: TR-FRET bromodomain binding assay, BRD4 first bromodomain. Particulars: His-tagged BD1, 100 nM Alexa647 probe; Ki calculated from IC50; dilution protocol A-G. Here is the method: as §1, §2, §3, §4, §5, §6, §7

The test system of experiment [1] is breast cancer cell line MX-1. Put plainly: MX-1 cell line proliferation assay (3-day, Cell Titer Glo). The format is cell-based. Conditions: Homo sapiens, MX1, MX-1 cells, 72 h, top concentration 3 μM, read-out: Cellular proliferation: EC50. Here is the method:
The impact of compounds of the Examples on cancer cell proliferation was determined using the breast cancer cell line MX-1 (ATCC) in a 3-day proliferation assay and the data are reported in Table 1. MX-1 cells were maintained in RPMI 1640 medium (Sigma) supplemented with 10% FBS at 37 C.° and an atmosphere of 5% CO2. For compound testing, MX-1 cells were plated in 96-well black bottom plates at a density of 5000 cells/well in 90 μL of culture media and incubated at 37° overnight to allow cell adhesion and spreading. Compound dilution series were prepared in DMSO via a 3-fold serial dilution from 3 mM to 0.1 μM. The DMSO dilution series were then diluted 1:100 in phosphate buffered saline, and 10 μL of the resulted solution were added to the appropriate wells of the MX-1 cell plate. The final compound concentrations in the wells were 3, 1, 0.3, 0.1, 0.03, 0.01, 0.003, 0.001, 0.0003 and 0.0001 μM.
Luminescence readings from the Cell Titer Glo assay were normalized to the DMSO treated cells and analyzed using the GraphPad Prism software with sigmoidal curve fitting to obtain EC50s. The minimum significant ratio (MSR) was determined to evaluate assay reproducibility (Eastwood et al., (2006) J Biomol Screen, 11: 253-261).
For orientation: Cellular ATP, detected with luciferase, serves as a proxy for viable cell number.

The structures appear in SMILES notation.

One may read the Ki as a dissociation constant, usually derived from enzyme kinetics or from competition with a known ligand. Take `COC(=O)c1cc2c(-c3ccccc3Oc3ccccc3)[nH]c(C)c2c(=O)[nH]1` [Example 1, methyl 3-methyl-4-oxo-1-(2-phenoxyphenyl)-4,5-dihydro-2H-pyrrolo[3,4-c]pyridine-6-carboxylate]: the figures for the Ki on BRD4 (BDII_E352-M457) and at BRD4 (BDI_K57-E168) were 24.6 nM and 3.04 nM, respectively. Further, the EC50 in experiment [1] came out at 67 nM.

As for `Cc1[nH]c(-c2ccccc2Oc2ccccc2)c2cc(-c3nc(C4CC4)no3)[nH]c(=O)c12` [Example 63, 6-(3-cyclopropyl-1,2,4-oxadiazol-5-yl)-3-methyl-1-(2-phenoxyphenyl)-2H-pyrrolo[3,4-c]pyridin-4(5H)-one], the values for the Ki at BRD4 (BDII_E352-M457) and at BRD4 (BDI_K57-E168) were 257 nM and 43.5 nM, respectively. Moreover, the EC50 in experiment [1] turned out to be 139 nM.

Regarding `Cc1[nH]c(-c2cc(F)ccc2OCC2CC2)c2cc(C(N)=O)[nH]c(=O)c12` [Example 70, 1-[2-(cyclopropylmethoxy)-5-fluorophenyl]-3-methyl-4-oxo-4,5-dihydro-2H-pyrrolo[3,4-c]pyridine-6-carboxamide], the figures for the Ki on BRD4 (BDII_E352-M457) and at BRD4 (BDI_K57-E168) were 356 nM and 82.7 nM, respectively. Also, the EC50 in experiment [1] is more than 3000 nM.

Turning to `Cc1[nH]c(-c2cc(N)ccc2Oc2ccc(F)cc2F)c2c1C(=O)NC(C)C2` (centres unmarked) [Example 101, 1-[5-amino-2-(2,4-difluorophenoxy)phenyl]-3,6-dimethyl-2,5,6,7-tetrahydro-4H-pyrrolo[3,4-c]pyridin-4-one], the Ki is 11.5 nM at BRD4 (BDII_E352-M457) and 8.42 nM on BRD4 (BDI_K57-E168). In addition, the EC50 in experiment [1] is 45.8 nM.

For `Cc1[nH]c(-c2ccccc2Oc2ccccc2)c2cc(C(N)=O)[nH]c(=O)c12` [Example 11, 3-methyl-4-oxo-1-(2-phenoxyphenyl)-4,5-dihydro-2H-pyrrolo[3,4-c]pyridine-6-carboxamide], the Ki on BRD4 (BDII_E352-M457) was 11.9 nM; at BRD4 (BDI_K57-E168), 4.31 nM. For the same molecule, the EC50 in experiment [1] amounted to 31.7 nM.

On to `Cc1[nH]c(-c2ccccc2Oc2ccccc2)c2cc(C(=O)NCc3ccco3)[nH]c(=O)c12` [Example 31, N-(furan-2-ylmethyl)-3-methyl-4-oxo-1-(2-phenoxyphenyl)-4,5-dihydro-2H-pyrrolo[3,4-c]pyridine-6-carboxamide], for which the Ki is 155 nM on BRD4 (BDII_E352-M457) and 87.6 nM on BRD4 (BDI_K57-E168). Further, in experiment [1], the EC50 worked out at 182 nM.

On to `Cc1cc(-c2ccc(-c3[nH]c(C)c4c(=O)[nH]ncc34)cc2)[nH]n1` [Example 83, 7-methyl-5-[4-(3-methyl-1H-pyrazol-5-yl)phenyl]-2,6-dihydro-1H-pyrrolo[3,4-d]pyridazin-1-one], for which the Ki is 627 nM at BRD4 (BDII_E352-M457) and 126 nM at BRD4 (BDI_K57-E168). For the same molecule, in experiment [1], the EC50 was 1720 nM.

Consider `Cc1[nH]c(-c2cc(NS(=O)(=O)CC(F)(F)F)ccc2Oc2ccccc2)c2cn[nH]c(=O)c12` [Example 76, 2,2,2-trifluoro-N-[3-(7-methyl-1-oxo-2,6-dihydro-1H-pyrrolo[3,4-d]pyridazin-5-yl)-4-phenoxyphenyl]ethanesulfonamide], for which the Ki on BRD4 (BDII_E352-M457) is 16.2 nM; on BRD4 (BDI_K57-E168), 5.82 nM. For the same molecule, the EC50 in experiment [1] is 410 nM.

`CCOC(=O)c1cc2c(-c3cc(N)ccc3Oc3ccc(F)cc3F)[nH]c(C)c2c(=O)[nH]1` [Example 4, ethyl 1-[5-amino-2-(2,4-difluorophenoxy)phenyl]-3-methyl-4-oxo-4,5-dihydro-2H-pyrrolo[3,4-c]pyridine-6-carboxylate]: the Ki at BRD4 (BDII_E352-M457) was 91.3 nM; on BRD4 (BDI_K57-E168), 12.3 nM. In addition, the EC50 in experiment [1] was found to be 77.6 nM.

Consider `Cc1[nH]c(-c2ccccc2Oc2ccccc2)c2cc(-c3nc(-c4ccncc4)no3)[nH]c(=O)c12` [Example 45, 3-methyl-1-(2-phenoxyphenyl)-6-(3-(pyridin-4-yl)-1,2,4-oxadiazol-5-yl)-2H-pyrrolo[3,4-c]pyridin-4(5H)-one], for which the Ki at BRD4 (BDI_K57-E168) is 10.5 nM. The EC50 in experiment [1] amounted to 180 nM.
